Experimental data: ChEMBL document CHEMBL1140917, “Structure-activity relationships of antitubercular nitroimidazoles. 1. Structural features associated with aerobic and anaerobic activities of 4- and 5-nitroimidazoles” (2009)

Assays:
Type in all cases: functional
[1] = test system: Mycobacterium tuberculosis; test: Antimycobacterial activity against Mycobacterium tuberculosis with deazaflavin-dependent nitroreductase mutant
[2] = test system: Mycobacterium tuberculosis; test: Antimycobacterial activity against Mycobacterium tuberculosis with cofactor F420 mutant
[3] = test system: Mycobacterium tuberculosis; test: Antimycobacterial activity against Mycobacterium tuberculosis with deazaflavin-dependent nitroreductase mutant under anaerobic condition

SMILES	MIC [1] [µM]	MIC [2] [µM]	MAC [3] [µM]
CO[C@@H]1COc2nc([N+](=O)[O-])cn2C1	>100	>100	250
COc1ncc([N+](=O)[O-])n1CCO	>100	>100	>500
O=[N+]([O-])c1cnc2n1C[C@H](OCc1ccc(OC(F)(F)F)cc1)CO2	>100	>100	62.5
O=[N+]([O-])c1cnc2n1C[C@@H](O)CC2	>100	>100	>100
O=[N+]([O-])c1cn2c(n1)OC[C@@H](O)C2	>100	>100	500
COc1nc([N+](=O)[O-])cn1CCOCc1ccc(OC(F)(F)F)cc1	>100	>100	250
O=[N+]([O-])c1cnc2n1C[C@H](O)CO2	>100	>100	125
Cc1ncc([N+](=O)[O-])n1CCOCc1ccc(OC(F)(F)F)cc1	>100	>100	125
O=[N+]([O-])c1cn2c(n1)C=C[C@@H](OCc1ccc(OC(F)(F)F)cc1)C2	>100	>100	62.5
Cc1nc([N+](=O)[O-])cn1CCOCc1ccc(OC(F)(F)F)cc1	>100	>100	>500
O=[N+]([O-])c1cn2c(n1)CC[C@@H](OCc1ccc(OC(F)(F)F)cc1)C2	>100	>100	250
Cc1nc([N+](=O)[O-])cn1CCO	>100	>100	>500
O=[N+]([O-])c1cnc2n1C[C@H](O)CC2	>100	>100	>500
FC(F)(F)Oc1ccc(CO[C@@H]2COc3nccn3C2)cc1	>100	>100	>500
Cc1ncc([N+](=O)[O-])n1CCO [METRONIDAZOLE]	>100	>100	
O=[N+]([O-])c1cn2c(n1)OC[C@@H](OCc1ccc(OC(F)(F)F)cc1)C2 [PRETOMANID]	>100	>100	>500
